Test results as given in paper PMC11589570, “Critical assessment of LC3/GABARAP ligands used for degrader development and ligandability of LC3/GABARAP binding pockets” (Nature Communications, 2024).
Values joined by “and” are separate entries in the source; they are usually repeats but may differ in a detail not shown here. Identical values can stand only once.

Legend:
[1] = tested on: all LC3/GABARAPs; assay: Covalent compound screening by ESI LC-MS; conditions: 50 µM protein, 100 µM compound, 90 min
[2] = target: GABARAP (Homo sapiens, UniProt O95166); assay: FP assay with Cy5-labelled p62 LIR tracer (protein titration and tracer displacement); type: binding; conditions: two replicate columns per compound
[3] = target: LC3A (Homo sapiens, UniProt Q9H492); assay: as above; type: binding; conditions: two replicate columns per compound
[4] = target: LC3B (Homo sapiens, UniProt Q9GZQ8); assay: as above; type: binding; conditions: for normalized FP signal, p62 LIR tracer displacement: LC3B; for compound titration LC3B (displacement curve, FP signal): two replicate columns per compound
[5] = target: LC3C (Homo sapiens, UniProt Q9BXW4); assay: as above; type: binding; conditions: two replicate columns per compound
[6] = target: GABARAPL1 (Homo sapiens, UniProt Q9H0R8); assay: as above; type: binding; conditions: for compound titration GABARAPL1 (displacement curve, FP signal): two replicate columns per compound; for FP tracer displacement curve signal (compound titration): duplicate values, listed as Cov2
[7] = log10 concentration [M] -3.82391
[8] = log10 concentration [M] -4.1549
[9] = log10 concentration [M] -4.60206
[10] = log10 concentration [M] -5.30103
[11] = log10 concentration [M] -5.69897
[12] = log10 concentration [M] -6.22185
[13] = log10 concentration [M] -6.69897
[14] = log10 concentration [M] -7.30103
[15] = log10 concentration [M] -7.79588
[16] = log10 concentration [M] -8.08092

Sequence of GABARAP (O95166 1-116): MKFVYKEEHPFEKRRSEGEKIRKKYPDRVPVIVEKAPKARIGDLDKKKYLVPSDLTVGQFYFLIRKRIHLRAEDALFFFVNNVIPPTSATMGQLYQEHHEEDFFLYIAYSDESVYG
Sequence of LC3C (Q9BXW4 1-126): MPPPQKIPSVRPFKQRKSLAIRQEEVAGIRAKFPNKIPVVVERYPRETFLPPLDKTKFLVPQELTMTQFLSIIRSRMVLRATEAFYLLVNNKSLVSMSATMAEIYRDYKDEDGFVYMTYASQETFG
Sequence of GABARAPL1 (Q9H0R8 whole entry): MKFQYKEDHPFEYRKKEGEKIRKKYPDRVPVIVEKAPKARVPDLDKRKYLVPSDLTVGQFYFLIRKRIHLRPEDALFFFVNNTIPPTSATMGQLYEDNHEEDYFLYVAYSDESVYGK

Structure (SMILES): CC(=O)N1CCN(CCNC=C2C(=O)CC(c3ccc(Cl)cc3)CC2=O)CC1 (stereo not drawn) [compound 6]
- covalent labelling (mass shift, ESI MS) [1]: successfully labelled
- compound titration GABARAP (displacement curve, FP signal) [2, 7]: 90.8621 and 84.1379
- compound titration GABARAP (displacement curve, FP signal) [2, 8]: 94.8276 and 93.7931
- compound titration GABARAP (displacement curve, FP signal) [2, 9]: 93.1034 and 98.2759
- compound titration GABARAP (displacement curve, FP signal) ([2]; log10 concentration [M] -5): 100.69 and 98.6207
- compound titration GABARAP (displacement curve, FP signal) [2, 10]: 97.5862 and 99.4828
- compound titration GABARAP (displacement curve, FP signal) [2, 11]: 92.2414 and 94.1379
- compound titration GABARAP (displacement curve, FP signal) [2, 12]: 97.4138 and 95.5172
- compound titration GABARAP (displacement curve, FP signal) [2, 13]: 98.1034 and 97.7586
- compound titration GABARAP (displacement curve, FP signal) [2, 14]: 98.9655 and 102.759
- compound titration GABARAP (displacement curve, FP signal) [2, 15]: 95.6897 and 95
- compound titration GABARAP (displacement curve, FP signal) [2, 16]: 97.069 and 98.9655
- compound titration LC3A (displacement curve, FP signal) [3, 7]: 92.8947 and 97.3684
- compound titration LC3A (displacement curve, FP signal) [3, 8]: 97.1053 and 102.368
- compound titration LC3A (displacement curve, FP signal) [3, 9]: 99.7368 and 100.789
- compound titration LC3A (displacement curve, FP signal) ([3]; log10 concentration [M] -5): 103.421 and 103.947
- compound titration LC3A (displacement curve, FP signal) [3, 10]: 103.421 and 100.789
- compound titration LC3A (displacement curve, FP signal) [3, 11]: 99.7368 and 96.0526
- compound titration LC3A (displacement curve, FP signal) [3, 12]: 101.316 and 102.105
- compound titration LC3A (displacement curve, FP signal) [3, 13]: 103.947 and 107.368
- compound titration LC3A (displacement curve, FP signal) [3, 14]: 104.211 and 101.579
- compound titration LC3A (displacement curve, FP signal) [3, 15]: 104.211 and 98.6842
- compound titration LC3A (displacement curve, FP signal) [3, 16]: 104.211 and 93.9474
- normalized FP signal, p62 LIR tracer displacement [4, 7]: 71.5789 and 68.1579
- normalized FP signal, p62 LIR tracer displacement [4, 8]: 85 and 83.6842
- normalized FP signal, p62 LIR tracer displacement [4, 9]: 92.8947 and 95.7895
- normalized FP signal, p62 LIR tracer displacement ([4]; log10 concentration [M] -5): 95.7895 and 97.3684
- normalized FP signal, p62 LIR tracer displacement [4, 10]: 97.6316 and 99.7368
- normalized FP signal, p62 LIR tracer displacement [4, 11]: 96.0526 and 102.368
- normalized FP signal, p62 LIR tracer displacement [4, 12]: 95 and 100.789
- normalized FP signal, p62 LIR tracer displacement [4, 13]: 99.2105 and 96.8421
- normalized FP signal, p62 LIR tracer displacement [4, 14]: 99.7368 and 100.263
- normalized FP signal, p62 LIR tracer displacement [4, 15]: 97.6316 and 101.579
- normalized FP signal, p62 LIR tracer displacement [4, 16]: 95.2632 and 105.263
- compound titration LC3B (displacement curve, FP signal) [4, 7]: 71.5789 and 68.1579
- compound titration LC3B (displacement curve, FP signal) [4, 8]: 85 and 83.6842
- compound titration LC3B (displacement curve, FP signal) [4, 9]: 92.8947 and 95.7895
- compound titration LC3B (displacement curve, FP signal) ([4]; log10 concentration [M] -5): 95.7895 and 97.3684
- compound titration LC3B (displacement curve, FP signal) [4, 10]: 97.6316 and 99.7368
- compound titration LC3B (displacement curve, FP signal) [4, 11]: 96.0526 and 102.368
- compound titration LC3B (displacement curve, FP signal) [4, 12]: 95 and 100.789
- compound titration LC3B (displacement curve, FP signal) [4, 13]: 99.2105 and 96.8421
- compound titration LC3B (displacement curve, FP signal) [4, 14]: 99.7368 and 100.263
- compound titration LC3B (displacement curve, FP signal) [4, 15]: 97.6316 and 101.579
- compound titration LC3B (displacement curve, FP signal) [4, 16]: 95.2632 and 105.263
- compound titration LC3C (displacement curve, FP signal) [5, 7]: 87.8 and 86.8
- compound titration LC3C (displacement curve, FP signal) [5, 8]: 94.6 and 92
- compound titration LC3C (displacement curve, FP signal) [5, 9]: 98.2 and 98.8
- compound titration LC3C (displacement curve, FP signal) ([5]; log10 concentration [M] -5): 94.6 and 102.4
- compound titration LC3C (displacement curve, FP signal) [5, 10]: 93.4 and 98.8
- compound titration LC3C (displacement curve, FP signal) [5, 11]: 90 and 93.6
- compound titration LC3C (displacement curve, FP signal) [5, 12]: 93.6 and 98.6
- compound titration LC3C (displacement curve, FP signal) [5, 13]: 97.6 and 98.8
- compound titration LC3C (displacement curve, FP signal) [5, 14]: 101.6 and 101.4
- compound titration LC3C (displacement curve, FP signal) [5, 15]: 90.4 and 95.6
- compound titration LC3C (displacement curve, FP signal) [5, 16]: 99.2 and 98
- compound titration GABARAPL1 (displacement curve, FP signal) [6, 7]: 89 and 90.4286
- compound titration GABARAPL1 (displacement curve, FP signal) [6, 8]: 94.7143 and 97.7143
- compound titration GABARAPL1 (displacement curve, FP signal) [6, 9]: 98.2857 and 100.143
- compound titration GABARAPL1 (displacement curve, FP signal) ([6]; log10 concentration [M] -5): 102.429 and 101.571
- FP tracer displacement curve signal (compound titration) [6, 11]: 94.4286 and 98.2857
- FP tracer displacement curve signal (compound titration) [6, 12]: 101.857 and 101.143
- FP tracer displacement curve signal (compound titration) [6, 13]: 102.714 and 104.571
- FP tracer displacement curve signal (compound titration) [6, 14]: 102.571 and 101.857
- FP tracer displacement curve signal (compound titration) [6, 15]: 99.8571 and 100.429
- FP tracer displacement curve signal (compound titration) [6, 16]: 102.571 and 101
